In US20220167618A1, “PESTICIDALLY ACTIVE AZOLE-AMIDE COMPOUNDS” (SYNGENTA CROP PROTECTION AG, priority 2019, published 2022):

Tests used:
Assay type in all cases: in vivo
[1] = system: Spodoptera littoralis (Egyptian Cotton Leaf Worm); experiment: Example B9: Spodoptera littoralis (Egyptian cotton leaf worm), sprayed cotton leaf discs; details: foliar, 72 h, application rate 200 ppm, L1 larvae, 3 days after infestation, read-out: control in at least one of the three categories (mortality, anto-feedant or growth inhibition)
[2] = system: Plutella xylostella (Diamond Back Moth); experiment: Example B5: Plutella xylostella (diamond back moth), artificial diet, 24-well; details: 192 h, application rate 200 ppm, eggs, 8 days after infestation, read-out: control in at least one of the two categories (mortality or growth inhibition)
Description: Example B5: Plutella xylostella (Diamond Back Moth)
24-well microtiter plates with artificial diet were treated with aqueous test solutions prepared from 10′000 ppm DMSO stock solutions by pipetting. After drying, Plutella eggs were pipetted through a plastic stencil onto a gel blotting paper and the plate was closed with it. The samples were assessed for mortality and growth inhibition in comparison to untreated samples 8 days after infestation.

[3] = system: Plutella xylostella (Diamondback Moth); experiment: Example B13: Plutella xylostella (diamondback moth), artificial diet, 96-well; details: 216 h, application rate 500 ppm, eggs/L1 larvae, 9 days after infestation
Description: Example B13: Plutella xylostella (Diamondback Moth)
96-well microtiter plates containing artificial diet were treated with aqueous test solutions, prepared from 10′000 ppm DMSO stock solutions, by a liquid handling robot. After drying, eggs (˜30 per well) were infested onto a netted lid which was suspended above the diet. The eggs hatch and L1 larvae move down to the diet. The samples were assessed for mortality 9 days after infestation.

[4] = system: Chilo suppressalis (Striped Rice Stemborer); experiment: Example B4: Chilo suppressalis (striped rice stemborer), artificial diet; details: 144 h, application rate 200 ppm, L2 larvae, 6 days after infestation, read-out: control in at least one of the three categories (mortality, anti-feedant or growth inhibition)
Description: Example B4: Chilo suppressalis (Striped Rice Stemborer)
24-well microtiter plates with artificial diet were treated with aqueous test solutions prepared from 10′000 ppm DMSO stock solutions by pipetting. After drying, the plates were infested with L2 larvae (6-8 per well). The samples were assessed for mortality, anti-feeding effect, and growth inhibition in comparison to untreated samples 6 days after infestation. Control of Chilo suppressalis by a test sample is given when at least one of the categories mortality, anti-feedant effect, and growth inhibition is higher than the untreated sample.

[5] = system: Diabrotica balteata (Corn Root Worm); experiment: Example B1: Diabrotica balteata (corn root worm), sprayed maize sprouts; details: 96 h, application rate 200 ppm, L2 larvae, 4 days after infestation, read-out: control in at least one of the two categories (mortality or growth inhibition)
Description: Example B1: Diabrotica balteata (Corn Root Worm)
Maize sprouts placed onto an agar layer in 24-well microtiter plates were treated with aqueous test solutions prepared from 10′000 ppm DMSO stock solutions by spraying. After drying, the plates were infested with L2 larvae (6 to 10 per well). The samples were assessed for mortality and growth inhibition in comparison to untreated samples 4 days after infestation.

CC(NC(=O)c1cc(C2CC2)cc(C(F)(F)F)c1)c1nc(Br)nn1-c1ncc(OCC(F)(F)F)cn1 (centres unmarked) [Compound P5, N-[1-[5-bromo-2-[5-(2,2,2-trifluoroethoxy)pyrimidin-2-yl]-1,2,4-triazol-3-yl]ethyl]-3-cyclopropyl-5-(trifluoromethyl)benzamide]
≥ 80%: percent control (mortality, anti-feedant or growth inhibition) at 200 ppm [1] | percent control (mortality or growth inhibition) at 200 ppm [2] | mortality at 500 ppm [3] | percent control (mortality, anti-feedant or growth inhibition) at 200 ppm [4] | percent control (mortality or growth inhibition) at 200 ppm [5]

CC(NC(=O)c1cc(C2CC2(F)F)cc(C(F)(F)F)c1)c1nc(Br)nn1-c1ccc(C#N)cn1 (centres unmarked) [Compound P6, N-[1-[5-bromo-2-(5-cyano-2-pyridyl)-1,2,4-triazol-3-yl]ethyl]-3-(2,2-difluorocyclopropyl)-5-(trifluoromethyl)benzamide]
≥ 80%: percent control (mortality, anti-feedant or growth inhibition) at 200 ppm [1] | percent control (mortality or growth inhibition) at 200 ppm [2] | mortality at 500 ppm [3] | percent control (mortality, anti-feedant or growth inhibition) at 200 ppm [4] | percent control (mortality or growth inhibition) at 200 ppm [5]

CC(NC(=O)c1cc(C2CC2(F)F)cc(C(F)(F)F)c1)c1nc(Br)nn1-c1ccc(OCC(F)F)cn1 (centres unmarked) [Compound P22, N-[1-[5-bromo-2-[5-(2,2-difluoroethoxy)-2-pyridyl]-1,2,4-triazol-3-yl]ethyl]-3-(2,2-difluorocyclopropyl)-5-(trifluoromethyl)benzamide]
≥ 80%: percent control (mortality, anti-feedant or growth inhibition) at 200 ppm [1] | percent control (mortality or growth inhibition) at 200 ppm [2] | mortality at 500 ppm [3] | percent control (mortality, anti-feedant or growth inhibition) at 200 ppm [4]

CC(NC(=O)c1cc(C(F)(F)F)cc(S(=O)(=O)C(F)(F)F)c1)c1nc(Br)nn1-c1ncc(OCC(F)F)cn1 (centres unmarked) [Compound P24, N-[1-[5-bromo-2-[5-(2,2-difluoroethoxy)pyrimidin-2-yl]-1,2,4-triazol-3-yl]ethyl]-3-(trifluoromethyl)-5-(trifluoromethylsulfonyl) benzamide]
≥ 80%: percent control (mortality, anti-feedant or growth inhibition) at 200 ppm [1] | percent control (mortality or growth inhibition) at 200 ppm [2] | mortality at 500 ppm [3] | percent control (mortality, anti-feedant or growth inhibition) at 200 ppm [4]

CC(NC(=O)c1cc(C2CC2)cc(C(F)(F)F)c1)c1nc(Br)nn1-c1ccc(OCC(F)F)cn1 (centres unmarked) [Compound P27, N-[1-[5-bromo-2-[5-(2,2-difluoroethoxy)-2-pyridyl]-1,2,4-triazol-3-yl]ethyl]-3-cyclopropyl-5-(trifluoromethyl)benzamide]
≥ 80%: percent control (mortality or growth inhibition) at 200 ppm [2] | mortality at 500 ppm [3] | percent control (mortality, anti-feedant or growth inhibition) at 200 ppm [4]

CC(NC(=O)c1cc(C(F)(F)F)cc(C(C)(C)C#N)c1)c1nc(Br)nn1-c1ncc(OCC(F)(F)F)cn1 (centres unmarked) [Compound P39, N-[1-[5-bromo-2-[5-(2,2,2-trifluoroethoxy)pyrimidin-2-yl]-1,2,4-triazol-3-yl]ethyl]-3-(1-cyano-1-methyl-ethyl)-5-(trifluoromethyl)benzamide]
≥ 80%: percent control (mortality, anti-feedant or growth inhibition) at 200 ppm [1] | percent control (mortality or growth inhibition) at 200 ppm [2] | percent control (mortality, anti-feedant or growth inhibition) at 200 ppm [4] | percent control (mortality or growth inhibition) at 200 ppm [5]

CC(NC(=O)c1cc(C(F)(F)F)cc(C(C)(C)C#N)c1)c1nc(Br)nn1-c1ccc(OCC(F)F)cn1 (centres unmarked) [Compound P40, N-[1-[5-bromo-2-[5-(2,2-difluoroethoxy)-2-pyridyl]-1,2,4-triazol-3-yl]ethyl]-3-(1-cyano-1-methyl-ethyl)-5-(trifluoromethyl)benzamide]
≥ 80%: percent control (mortality, anti-feedant or growth inhibition) at 200 ppm [1] | percent control (mortality or growth inhibition) at 200 ppm [2] | mortality at 500 ppm [3] | percent control (mortality, anti-feedant or growth inhibition) at 200 ppm [4]
